Results as given in patent US20040019118A1, “NMDA receptor antagonists and their use in inhibiting abnormal hyperphosphorylation of microtubule associated protein tau” (priority 2002, published 2004).
Entries after “also recorded” stand apart in the source; their conditions may differ.

Key:
MAP2 = assay: 125I-Western blots of MAP2 in slice homogenates; type: cell-based, rat
Description: Organotypic cultures of rat hippocampal slices were prepared from 20-30 day old Wistar rats and cultured with the interface method as described previously (Stoppini, et al. 1991; Bahr, et al. 1995; Zhongrin, et al. 2000). The rats were anesthetized with ketamine (100 mg/kg body weight) and decapitated and the hippocampi were dissected out and sliced into 400 um coronal sections by a McIllwain tissue chopper. Select slices with uninterrupted bright transparent neuronal layers were plated, 1-3 slices/filter, onto Millicell CM filters (Millipore, Bedford, Mass.). For the first 2 days in vitro (DIV) cultures were maintained in 25% horse serum, 50% Basal Media-Eagle (BEM), 25% Eagle's Balanced Salt Solution (EBSS), 25 mM HEPES, 1 mM glutamine, 28 mM glucose, pH 7.2, at 32° C. in a 5% CO2 humidified atmosphere. The slice cultures were then switched to 25% horse serum, 50% BEM and EBSS modified so that the potassium concentration was 2.66 mM, for another 5 DIV. […]
The phosphorylation of tau at Ser 262 and the levels of MAP2 and phosphorylated NF-H/M were assayed by ^125I-Western blots. […] Both immuno-dot-blots and Western blots were developed with ^125I-radiolabeled secondary antibodies and radioimmunoreactivity was visualized and quantitated using a phosphorimager (Fujifilm BAS-1500) and TINA 2.0 software (Raytest Isotopenmessgeräte GmbH)

PKA = PKA activity in extracts of treated hippocampal slice cultures; type: cell-based, rat
Description: (§1) Organotypic cultures of rat hippocampal slices were prepared from 20-30 day old Wistar rats and cultured with the interface method as described previously (Stoppini, et al. 1991; Bahr, et al. 1995; Zhongrin, et al. 2000). The rats were anesthetized with ketamine (100 mg/kg body weight) and decapitated and the hippocampi were dissected out and sliced into 400 um coronal sections by a McIllwain tissue chopper. Select slices with uninterrupted bright transparent neuronal layers were plated, 1-3 slices/filter, onto Millicell CM filters (Millipore, Bedford, Mass.). For the first 2 days in vitro (DIV) cultures were maintained in 25% horse serum, 50% Basal Media-Eagle (BEM), 25% Eagle's Balanced Salt Solution (EBSS), 25 mM HEPES, 1 mM glutamine, 28 mM glucose, pH 7.2, at 32° C. in a 5% CO2 humidified atmosphere. The slice cultures were then switched to 25% horse serum, 50% BEM and EBSS modified so that the potassium concentration was 2.66 mM, for another 5 DIV. After 7 DIV, the cultures were maintained in physiological potassium containing 5% horse serum medium at 35° C. for at least 20 days before any treatment was applied. When the slices were treated, the reagents were applied into the culture medium. At different time points, the slices collected with a brush were washed twice in homogenizing buffer (50 mM HEPES, pH 7.0, 10 mM β-merceptoethanol [BME], 1 mM EDTA, 1 mM EGTA, 0.1 mM phenylmethyl sulfonyl fluoride [PMSF], 2.0 mM benzamidine and 2.0 μg/ml each of aprotinin, leupeptin and pepstatin) and homogenized at 4° C. using a Teflon-glass homogenizer. The homogenate was then divided into two parts, one was centrifuged at 16000×g for 15 min and the supernatant was used to assay activities of PP-2A and PP-1. The rest of the homogenate was diluted 1:1 with a phosphatase inhibitor cocktail (20 mM β-glycerophosphate, 2 mM Na3VO4 and 100 mM NaF, pH 7.0) and either used for Western blots or centrifuged at 16000×g for 15 min and the resulting supernatant used to determine the kinase activities.
CaMKII activity was measured in 25 μl of buffer containing 50 mM HEPES, pH 7.5, 10 mM MgCl2, 2.0 mM CaCl2, 10 mM BME, 10 μg/ml calmodulin (CaM), 20 μM syntide (Sigma, St Louis Mo., USA), 0.06 mg/ml slice extract and 200 μM [γ^32P]ATP. The reaction was initiated by adding [γ32p] ATP. After incubation for 10 min at 30° C., 10 μl reaction mixture was removed and spotted on to phosphocellulose membrane. The membrane was then washed five times in 1% phosphoric acid to remove non-protein incorporated ^32P, dried and counted by Cerenkov radiation. The activity of PKA was determined as above except the reaction mixture contained 70 mM NaHPO4, pH 6.8, 14 mM MgCl2, 1.4 mM EDTA, 30 μM malantide (Sigma, St Louis, Mo., USA), 200 μM [γ^32p] ATP and 0.06 mg/ml slice extract.

[1] = system: hippocampal slices in culture; assay: Cell death by LDH activity released into the culture medium; type: cell-based, rat
Description: as §1
The LDH released into the culture medium from the slices was determined calorimetrically using Cytotox 96R Non-Radioactive Cytotoxicity Assay Kit (Promega, Madison, Wis.) according to the manufacturer's protocol. The assay was carried out in 96-well microplates, and the results were read by a kinetic microplate reader (Molecular Devices) at a wavelength of 490 nm. Protein concentrations were assayed by the modified Lowry method (Bensadoun and Weinstein, 1976).

PP-2A = target: T1, PP-2A (Rattus norvegicus, UniProt P63331); assay: PP-2A activity after in vitro addition to 16,000xg extract of hippocampal slices; type: biochemical
T1 construct: from tissue; host or cells: organotypic culture of adult rat hippocampal slices; 16,000xg extract
Description: Activities of PP-2A and PP-1 were assayed towards [^32P] phosphorylase-a as a substrate as described previously (Gong, et al. 1994). The phosphatase activity was assayed in 20 μl of reaction mixture containing 50 mM Tris, pH 7.0, 10 mM BME, 0.1 mM EDTA, 7.5 mM caffeine, 7.5 ng/μl [^32P]phosphorylase-a and 0.06 mg/ml slice culture extract. The reaction was started by adding ^32P-phosphorylase-a. After incubation for 30 min at 30° C., 7 μl of the reaction mixture was spotted on to 31 ETCHR chromatography paper which had been prespotted with 10 μl stop solution (4 mM ATP+20% TCA). Then the ^32p released was separated from the protein-incorporated ^32P by paper chromatography in 5% TCA and 0.2 M NaCl, paper strips dried, cut and counted by Cerenkov radiation. A PP-1 specific inhibitor, inhibitor-1 (Hitken, et al. 1982) was included in the assays for PP-2A activity. PP-1 activity was calculated by subtracting the PP-2A activity from the total phosphorylase-a phosphatase activity (PP-1/PP-2A) assayed in the absence of inhibitor-1.
For this purpose we treated the hippocampal slices in culture either with 100 nM OA plus 10 μM Memantine or with OA alone for 24 h, followed by a wash and then treatment with or without Memantine for another 24 h.

T1 sequence (P63331 whole entry): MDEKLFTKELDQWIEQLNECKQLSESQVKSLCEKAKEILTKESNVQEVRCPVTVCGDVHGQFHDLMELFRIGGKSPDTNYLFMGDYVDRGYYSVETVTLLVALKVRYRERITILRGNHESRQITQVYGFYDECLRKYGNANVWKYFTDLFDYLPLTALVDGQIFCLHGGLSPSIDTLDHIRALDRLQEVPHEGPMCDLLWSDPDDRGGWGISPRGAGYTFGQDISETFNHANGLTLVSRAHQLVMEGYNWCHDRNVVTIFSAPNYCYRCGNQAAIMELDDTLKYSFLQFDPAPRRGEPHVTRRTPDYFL

SMILES | MAP2 level (MAP2; OA then Memantine) | restoration of OA-induced change in PKA activity (PKA; 100 nM OA, 10 μM Memantine, 24 h) | concentration (as low as) restoring OA-induced increase in PKA activity to normal level (PKA; 100 nM OA, p<0.05) [µM] | effect on PKA activity in control/untreated cultures (PKA; no OA) | concentration (as low as) that completely inhibited OA-induced cell death ([1]; 100 nM OA, p<0.001 (FIG. 2d)) [µM] | inhibition of OA-induced cell death ([1]; 10 μM Memantine) | effect on LDH activity in the medium of control cultures ([1]; 1-30 μM Memantine, no OA) | lowest concentration with significant/detectable inhibition of OA-induced cell death ([1]; OA-treated slices) [µM] | effect on PP-2A activity of extract of slices cultured with 100 nM OA for 24 h (PP-2A; Memantine 1-10 μM added to extract) | effect on PP-2A activity inhibited in extract with 100 nM OA (PP-2A; Memantine 1 to 60 μM added to extract) | MAP2 level (MAP2; OA-treated cultures) | increase in PKA activity (PKA; 100 nM OA, 24 h or 48 h) [%] | change in PKA activity (PKA; OA-treated slice cultures) | cell death (LDH activity released in the medium) ([1]; OA up to 1 μM, up to 48 h) | inhibition at 0.1 µM (PP-2A; read-out: inhibition of PP-2A activity, 100 nM OA added to extract of untreated cultures) [%]
CC12CC3CC(C)(C1)CC(N)(C3)C2 [Memantine, 1-amino-3,5-dimethyl adamantane] | reversal to normal levels; also recorded: increased the levels of MAP2 | restored the OA-induced changes in the activities of PP-2A, CaMKII and PKA to normal levels | 1 | no significant effect | 1 | completely inhibited | no effect | 1 | no significant effect; also recorded: failed to restore | no significant effect | – | – | – | – | –
C=C1[C@@H](O)[C@@H]2O[C@]3(CC[C@H](/C=C/[C@@H](C)[C@@H]4CC(C)=C[C@@]5(O[C@H](C[C@@](C)(O)C(=O)O)CC[C@H]5O)O4)O3)CC[C@H]2O[C@@H]1[C@@H](O)C[C@H](C)[C@H]1O[C@@]2(CCCCO2)CC[C@H]1C [OA, Okadaic Acid] | – | – | – | – | – | – | – | – | – | – | a decrease in MAP2 | ~20 | no significant changes; also recorded: no significant alteration | increased with increase in OA concentration and treatment period; also recorded: markedly increased; also recorded: several-fold increase | 90
